Laboratory results taken from US20090297478A1, “Methods and Compositions for the Treatment of Lupus Using Clofarabine” (priority 2002, published 2009).

Legend:
[1] = maximum tolerated dose of clofarabine; type: in vivo; conditions: species and route not given
Experimental: It may be necessary to use dosages of the active ingredient outside the ranges disclosed herein in some cases, as will be apparent to those of ordinary skill in the art, but the dosage should not fall below 0.01 mg/kg/day. The maximum tolerated doses of clofarabine is approximately 80 mg/kg per day. Furthermore, it is noted that the clinician or treating physician will know how and when to interrupt, adjust, or terminate therapy in conjunction with individual patient response.

[2] = degradation of the drug during dissolution, lyophilization and drying (parenteral formulation); type: physicochemical; conditions: dissolved in 1:1 tertiary butanol/Water for Injection at 5° C., lyophilized at −16° C. for 48 hours, dried at 15° C. under high vacuum for 48 hours, protected from light
Experimental: Clofarabine, 9.86 g, is wetted/partially dissolved with 600 mL of a 9:1 mixture of tertiary butanol and Water for Injection USP which is pre-cooled to 5° C. Once the drug powder is completely wetted, dissolution is completed by the addition of 600 mL of a 1:9 mixture of tertiary butanol and Water for Injection and 766 mL of a 1:1 mixture of tertiary butanol and Water for Injection which likewise is pre-cooled to 5° C. thereby making the final solution a 1:1 mixture. The dissolution is carried out under protection from light.
The solution formed above is promptly lyophilized in a Virtis INOTOP lyophilizer at −16° C. under light protectant conditions over a period of 48 hours. The resultant lyophilized product (lyophile) is then further dried at 15° C. under high vacuum for 48 hours. […] The lyophile is packaged under sterile conditions into 30 mL vials, each containing 50 mg of drug, 50 mg of mannitol and sodium hydroxide to adjust the pH to 7.7 and standard excess to allow for vial/needle/syringe loss.

With Nc1nc(Cl)nc2c1ncn2[C@@H]1O[C@H](CO)[C@@H](O)[C@@H]1F [Clofarabine, 2-Chloro-9-(2-deoxy-2-fluoro-β-D-arabinofuranosyl)adenine] the maximum tolerated dose [1] was “approximately 80 mg/kg per day” and the “degradation of the drug” value [2] was “No detectable degradation”.
